Laboratory results as given in patent publication US12023360B2, “Composition and methods of screening” (OPTIBIOTIX LIMITED, priority 2013, dated 2024).

What was measured:
Format in all cases: cell-based
Clostridia = assay: Anaerobic culture utilisation, FISH enumeration at 24 h: Clostridia; details: inoculum 7.55
Procedure: (§1) In these experiments, anaerobic cultures were tested to evaluate the in vitro utilisation of a novel Lactobacillus reuteri galactooligosaccharide by monitoring the populations of gut bacterial groups at 24 hours using fluorescent in situ hybridisation, and short-chain fatty acid (SCFA). Fructooligosaccharides (FOS), melibiose and raffinose were used as reference carbohydrates.

Bifidobacteria = assay: Anaerobic culture utilisation, FISH enumeration at 24 h: Bifidobacteria; details: inoculum 6.85
Procedure: as §1

Eubacteria = assay: Anaerobic culture utilisation, FISH enumeration at 24 h: Eubacteria; details: inoculum 8.06
Procedure: as §1

Bacteroides = assay: Anaerobic culture utilisation, FISH enumeration at 24 h: Bacteroides; details: inoculum 7.98
Procedure: as §1

E. coli = assay: Anaerobic culture utilisation, FISH enumeration at 24 h: E. coli; details: inoculum 8.14
Procedure: as §1

Lactobacilli = assay: Anaerobic culture utilisation, FISH enumeration at 24 h: Lactobacilli; details: inoculum 7.15
Procedure: as §1

Row | SMILES | Clostridia, 24 (Clostridia) | Bifidobacteria, 24 (Bifidobacteria) | Eubacteria, 24 (Eubacteria) | Bacteroides, 24 (Bacteroides) | E. coli, 24 (E. coli) | Lactobacilli, 24 (Lactobacilli)
1 | OC[C@H]1O[C@H](OC[C@H]2O[C@H](O[C@]3(CO)O[C@H](CO)[C@@H](O)[C@@H]3O)[C@H](O)[C@@H](O)[C@@H]2O)[C@H](O)[C@@H](O)[C@H]1O [Raffinose, raffinose] | 7.81 | – | – | – | – | –
2 | OC[C@H]1O[C@H](OCC2O[C@@H](O)[C@H](O)[C@@H](O)[C@@H]2O)[C@H](O)[C@@H](O)[C@H]1O (stereo partly shown) [Melibiose, melibiose] | 7.65 | 7.33 | 7.84 | 7.9 | 7.66 | 7.43
